Laboratory results: PubChem BioAssay (NCI)
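48-hour exposure; five concentrations; linearly interpolated endpoints. The concentration for 50% growth inhibition is given as GI50. Definition used: TGI = concentration required for complete inhibition of growth.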

Experiments:
Experiment in all cases: NCI anticancer screen, dose series, 48 h; in the data active means GI50 below about 0.43 µM; inactive means the rest
[1] = test system: SK-MEL-5 melanoma
[2] = test system: BT-549 breast
[3] = test system: KM12 colon
[4] = test system: SN12C renal
[5] = test system: SNB-19 CNS
[6] = test system: UACC-257 melanoma
[7] = test system: HCC-2998 colon
[8] = test system: LOX IMVI melanoma
[9] = test system: SK-MEL-2 melanoma
[10] = test system: SF-295 CNS
[11] = test system: OVCAR-4 ovarian
[12] = test system: HOP-62 NSCLC
[13] = test system: MOLT-4 leukemia
[14] = test system: OVCAR-8 ovarian
[15] = test system: NCI-H23 lung
[16] = test system: HCT-116 colon
[17] = test system: CAKI-1 renal
[18] = test system: NCI-H226 lung
[19] = test system: UO-31 renal
[20] = test system: SF-539 CNS
[21] = test system: MCF7 breast
[22] = test system: COLO 205 colon
[23] = test system: NCI-H522 lung
[24] = test system: SW-620 colon
[25] = test system: 786-0 renal
[26] = test system: M14 melanoma
[27] = test system: SNB-75 CNS
[28] = test system: MDA-MB-231 breast
[29] = test system: MDA-MB-435
[30] = test system: RPMI-8226 leukemia
[31] = test system: SK-MEL-28 melanoma
[32] = test system: CCRF-CEM leukemia
[33] = test system: IGROV1 ovarian
[34] = test system: NCI/ADR-RES ovarian
[35] = test system: U251 CNS
[36] = test system: SK-OV-3 ovarian
[37] = test system: T-47D breast
[38] = test system: SF-268 CNS
[39] = test system: RXF 393 renal
[40] = test system: HOP-92 NSCLC
[41] = test system: OVCAR-3 ovarian
[42] = test system: NCI-H460 lung
[43] = test system: MALME-3M melanoma
[44] = test system: A498 renal
[45] = test system: HL-60(TB) leukemia
[46] = test system: K-562 leukemia
[47] = test system: OVCAR-5 ovarian
[48] = test system: UACC-62 melanoma
[49] = test system: DU-145 prostate
[50] = test system: HCT-15 colon
[51] = test system: HS 578T breast
[52] = test system: EKVX NSCLC
[53] = test system: PC-3 prostate
[54] = test system: A549 NSCLC
[55] = test system: TK-10 renal
[56] = test system: ACHN renal
[57] = test system: HT29 colon

Cc1ccc(C2=NOC3=c4ccccc4=CSC3=C2c2ccc([N+](=O)[O-])cc2)cc1
34 µM: TGI [18]
46.8 µM: TGI [17]
68.2 µM: TGI [40]
49 µM: TGI [36]
> 100 µM: TGI [3] | TGI [4] | TGI [6] | TGI [7] | TGI [9] | TGI [11] | TGI [13] | TGI [16] | TGI [19] | TGI [22] | TGI [24] | TGI [26] | TGI [29] | TGI [30] | TGI [31] | TGI [32] | TGI [33] | TGI [34] | TGI [42] | TGI [45] | TGI [46] | TGI [47] | TGI [49] | TGI [50] | TGI [54] | TGI [57]
31.3 µM: TGI [48]
26.9 µM: TGI [44]
63.7 µM: TGI [5]
47.1 µM: TGI [37]
37.6 µM: TGI [1]
72.5 µM: TGI [25]
inactive: GI50 [1] 11.4 µM | GI50 [2] 19.1 µM | GI50 [3] 61.1 µM | GI50 [4] 18.3 µM | GI50 [5] 17.6 µM | GI50 [6] 44.4 µM | GI50 [7] 24.4 µM | GI50 [8] 16.2 µM | GI50 [9] 31.5 µM | GI50 [10] 13.3 µM | GI50 [11] 95.6 µM | GI50 [12] 13.6 µM | GI50 [13] > 100 µM | GI50 [14] 6.22 µM | GI50 [15] 17.8 µM | GI50 [16] 3.35 µM | GI50 [17] 16.8 µM | GI50 [18] 14 µM | GI50 [19] 27.8 µM | GI50 [20] 7.18 µM | GI50 [21] 11.1 µM | GI50 [22] 35.8 µM | GI50 [23] 12.5 µM | GI50 [24] 62.3 µM | GI50 [25] 0.58 µM | GI50 [26] 18.6 µM | GI50 [27] 24.5 µM | GI50 [28] 8.59 µM | GI50 [29] 57.9 µM | GI50 [30] 44.4 µM | GI50 [31] > 100 µM | GI50 [32] 39.3 µM | GI50 [33] 14.2 µM | GI50 [34] 31.4 µM | GI50 [35] 10.3 µM | GI50 [36] 6.91 µM | GI50 [37] 5.22 µM | GI50 [38] 18.1 µM | GI50 [39] 18.7 µM | GI50 [40] 18 µM | GI50 [41] 10 µM | GI50 [42] 16.9 µM | GI50 [43] 17.7 µM | GI50 [44] 10.8 µM | GI50 [45] > 100 µM | GI50 [46] 36.1 µM | GI50 [47] 25.2 µM | GI50 [48] 14.5 µM | GI50 [49] 15.2 µM | GI50 [50] 33.2 µM | GI50 [51] 22.9 µM | GI50 [52] 24.4 µM | GI50 [53] 14.3 µM | GI50 [54] 24.5 µM | GI50 [55] 13 µM | GI50 [56] 13.8 µM | GI50 [57] > 100 µM
41.9 µM: TGI [41]
55.8 µM: TGI [12]
68.5 µM: TGI [23]
94.9 µM: TGI [51]
93.6 µM: TGI [52]
36.1 µM: TGI [35]
46.7 µM: TGI [38]
46.2 µM: TGI [2]
64.6 µM: TGI [39]
61.4 µM: TGI [56]
88.8 µM: TGI [21]
49.9 µM: TGI [10]
28 µM: TGI [28]
53.7 µM: TGI [15]
25.4 µM: TGI [20]
81.4 µM: TGI [27]
89.5 µM: TGI [43]
40.5 µM: TGI [14]
40.3 µM: TGI [55]
53.8 µM: TGI [8]
65.3 µM: TGI [53]
